Laboratory results: ChEMBL document CHEMBL1146832, “N-Benzylindole-2-carboxylic acids: potent functional antagonists of the CCR2b chemokine receptor” (Bioorg Med Chem Lett, 2004)

What follows are compounds tested against C-C chemokine receptor type 2 (Homo sapiens, UniProt P41597) (assay: Inhibition of human C-C chemokine receptor type 2).
C-C chemokine receptor type 2, sequence (P41597 whole entry): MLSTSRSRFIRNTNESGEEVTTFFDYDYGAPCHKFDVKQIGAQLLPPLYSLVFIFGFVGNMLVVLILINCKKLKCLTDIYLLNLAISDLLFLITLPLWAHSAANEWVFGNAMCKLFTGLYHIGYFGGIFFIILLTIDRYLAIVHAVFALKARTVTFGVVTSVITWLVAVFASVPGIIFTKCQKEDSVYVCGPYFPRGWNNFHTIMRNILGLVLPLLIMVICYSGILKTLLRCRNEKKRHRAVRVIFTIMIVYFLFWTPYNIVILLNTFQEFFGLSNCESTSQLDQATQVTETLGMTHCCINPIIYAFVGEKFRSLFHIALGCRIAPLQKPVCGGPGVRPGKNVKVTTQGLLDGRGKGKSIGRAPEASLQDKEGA

| Structure (SMILES) | IC50 [nM] |
| --- | --- |
| O=C(O)c1cc2cccc(F)c2n1Cc1ccc(Cl)c(Cl)c1 | 125 |
| O=C(NS(=O)(=O)C(F)(F)F)c1cc2cc(F)ccc2n1Cc1ccc(Cl)c(Cl)c1 | 370 |
| O=C(O)c1cc2ccccc2n1Cc1ccc(-c2ccccc2)cc1 | > 50000 |
| O=C(O)c1cc2cccc(C(F)(F)F)c2n1Cc1ccc(Cl)c(Cl)c1 | 1270 |
| O=C(O)c1cc2cc(Cl)ccc2n1Cc1ccc(Cl)c(Cl)c1 | 110 |
| O=C(O)c1cc2ccc(-c3ccccc3)cc2n1Cc1ccc(Cl)c(Cl)c1 | 12300 |
| O=C(O)c1cc2ccccc2n1C(=O)c1ccc(Cl)c(Cl)c1 | > 50000 |
| O=C(NS(=O)(=O)c1ccccc1)c1cc2ccccc2n1Cc1ccc(Cl)c(Cl)c1 | 4780 |
| COc1ccc(Cn2c(C(=O)O)cc3cc(Cl)ccc32)cc1 | 5770 |
| Clc1ccc(Cn2c(-c3nn[nH]n3)cc3ccccc32)cc1Cl | 1030 |
| O=C(O)c1cc2cc(Cl)ccc2n1Cc1ccc(OCc2ccccc2)cc1 | > 50000 |
| Nc1cccc2c1cc(C(=O)O)n2Cc1ccc(Cl)c(Cl)c1 | 230 |
| O=C(O)c1cc2ccc(F)cc2n1Cc1ccc(Cl)c(Cl)c1 | 90 |
| Nc1ccc2c(c1)cc(C(=O)O)n2Cc1ccc(Cl)c(Cl)c1 | 500 |
| O=C(O)c1cc2ccccc2n1Cc1ccccc1 | 1700 |
| COc1ccc2c(c1)cc(C(=O)O)n2Cc1ccc(Cl)c(Cl)c1 | 410 |
| O=C(O)c1cc2cc(Cl)ccc2n1Cc1ccccc1Cl | 1480 |
| N#Cc1cccc(Cn2c(C(=O)O)cc3cc(Cl)ccc32)c1 | 2000 |
| O=C(O)c1c(C(=O)O)n(Cc2ccc(Cl)c(Cl)c2)c2ccccc12 | 96 |
| NC(=O)c1cc2ccccc2n1Cc1ccc(Cl)c(Cl)c1 | 12700 |
| O=C(O)c1cc2ccccc2n1S(=O)(=O)c1ccc(Cl)c(Cl)c1 | 1020 |
| O=C(O)c1cc2cc(Cl)ccc2n1Cc1cccc([N+](=O)[O-])c1 | 650 |
| O=C(O)c1cc2ccccc2n1Cc1ccc(Cl)c(Cl)c1 | 230 |
| O=C(O)c1cc2c(-c3ccccc3)cccc2n1Cc1ccc(Cl)c(Cl)c1 | 640 |
| O=C(O)c1cc2cccc([N+](=O)[O-])c2n1Cc1ccc(Cl)c(Cl)c1 | 10800 |
| O=C(O)c1cc2cc([N+](=O)[O-])ccc2n1Cc1ccc(Cl)c(Cl)c1 | 390 |
| O=C(O)c1cc2c([N+](=O)[O-])cccc2n1Cc1ccc(Cl)c(Cl)c1 | 1310 |

| Structure (SMILES) | IC50 [nM] |
| --- | --- |
| N#Cc1c(C(=O)O)n(Cc2ccc(Cl)c(Cl)c2)c2ccccc12 | 300 |
| O=C(O)c1c(Cl)c2ccccc2n1Cc1ccc(Cl)c(Cl)c1 | 260 |
| COc1c(C(=O)O)n(Cc2ccc(Cl)c(Cl)c2)c2ccccc12 | 770 |
| Nc1ccc2cc(C(=O)O)n(Cc3ccc(Cl)c(Cl)c3)c2c1 | 12600 |
| O=C(O)c1cc2cc(-c3ccccc3)ccc2n1Cc1ccc(Cl)c(Cl)c1 | 8600 |
| Cc1ccc(Cn2c(C(=O)O)cc3cc(Cl)ccc32)cc1C | 220 |
| O=C(O)c1cc2cc(F)ccc2n1Cc1ccc(Cl)c(Cl)c1 | 56 |
| CS(=O)(=O)NC(=O)c1cc2ccccc2n1Cc1ccc(Cl)c(Cl)c1 | 6090 |
| COc1cccc2c1cc(C(=O)O)n2Cc1ccc(Cl)c(Cl)c1 | 280 |
| O=C(O)c1cc2cccc(Cl)c2n1Cc1ccc(Cl)c(Cl)c1 | 340 |
| O=C(O)c1cc2c(C(F)(F)F)cccc2n1Cc1ccc(Cl)c(Cl)c1 | 1190 |
| O=C(O)c1cc2ccc(Cl)cc2n1Cc1ccc(Cl)c(Cl)c1 | 340 |
| O=C(O)c1cc2ccc(C(F)(F)F)cc2n1Cc1ccc(Cl)c(Cl)c1 | 1050 |
| O=C(O)c1cc2ccccc2n1Cc1cccc(Cl)c1 | 1130 |
| O=C(O)c1cc2ccccc2n1Cc1ccc(Cl)cc1 | 1360 |
| O=C(O)c1cc2ccc([N+](=O)[O-])cc2n1Cc1ccc(Cl)c(Cl)c1 | 1640 |
| Cc1ccc(Cn2c(C(=O)O)cc3cc(Cl)ccc32)cc1Cl | 120 |
| O=C(O)c1cc2c(F)cccc2n1Cc1ccc(Cl)c(Cl)c1 | 99 |
| COc1cccc(Cn2c(C(=O)O)cc3cc(Cl)ccc32)c1 | 3010 |
| CS(=O)(=O)c1cccc2c1cc(C(=O)O)n2Cc1ccc(Cl)c(Cl)c1 | 3880 |
| O=C(O)c1cc2c(Cl)cccc2n1Cc1ccc(Cl)c(Cl)c1 | 150 |
| O=C(O)c1cccc(Cn2c(C(=O)O)cc3cc(Cl)ccc32)c1 | 27000 |
| CS(=O)(=O)c1ccc2c(c1)cc(C(=O)O)n2Cc1ccc(Cl)c(Cl)c1 | 2200 |
| O=C(O)c1cc2cc(C(F)(F)F)ccc2n1Cc1ccc(Cl)c(Cl)c1 | 170 |
| COc1cccc2cc(C(=O)O)n(Cc3ccc(Cl)c(Cl)c3)c12 | 1210 |
| COc1ccc2cc(C(=O)O)n(Cc3ccc(Cl)c(Cl)c3)c2c1 | 2300 |
